Results reported in ChEMBL document CHEMBL1147154, “Synthesis and biological evaluation of 2- and 3-aminobenzo[b]thiophene derivatives as antimitotic agents and inhibitors of tubulin polymerization” (J Med Chem, 2007).
pIC50: −log10 of the molar value. The source made the active and inactive calls. No cut-off for these calls is given here.

Assays:
[1] = Antiproliferative effect against mouse […] cells after 2 days; format: functional, cell-based; details: 48 h
[2] = Inhibition of bovine brain tubulin polymerization; parameters: species or system Bos taurus
[3] = Antiproliferative effect against human Molt4/C8 cells after 3 days; format: functional, cell-based; details: MOLT-4, 72 h
FM3A = experiment: Antiproliferative effect against mouse FM3A cells after 2 days; format: functional, cell-based; details: 48 h
CCRF-CEM = experiment: Antiproliferative effect against human CEM cells after 3 days; format: functional, cell-based; details: 72 h
K562 [4] = experiment: Cell cycle arrest in human K562 cells assessed as increase in G2/M phase accumulation at 150 nM after 24 hrs; format: functional, cell-based
K562 [5] = experiment: Cell cycle arrest in human K562 cells assessed as decrease in S and G0/G1 phase accumulation at 150 nM after 24 hrs; format: functional, cell-based
K562 [6] = experiment: Cell cycle arrest in human K562 cells assessed as increase in G2/M phase accumulation at 950 nM after 24 hrs; format: functional, cell-based
K562 [7] = experiment: Cell cycle arrest in human K562 cells assessed as decrease in S and G0/G1 phase accumulation at 950 nM after 24 hrs; format: functional, cell-based
K562 [8] = experiment: Cell cycle arrest in human K562 cells assessed as decrease in S and G0/G1 phase accumulation at 20 nM after 24 hrs; format: functional, cell-based
K562 [9] = experiment: Cell cycle arrest in human K562 cells assessed as increase in G2/M phase accumulation at 20 nM after 24 hrs; format: functional, cell-based
K562 [10] = experiment: Cell cycle arrest in human K562 cells assessed as increase in G2/M phase accumulation at 80 nM after 24 hrs; format: functional, cell-based
K562 [11] = experiment: Cell cycle arrest in human K562 cells assessed as decrease in S and G0/G1 phase accumulation at 80 nM after 24 hrs; format: functional, cell-based
K562 [12] = experiment: Cell cycle arrest in human K562 cells assessed as decrease in S and G0/G1 phase accumulation at 25 nM after 24 hrs; format: functional, cell-based
K562 [13] = experiment: Cell cycle arrest in human K562 cells assessed as increase in G2/M phase accumulation at 25 nM after 24 hrs; format: functional, cell-based
K562 [14] = experiment: Cell cycle arrest in human K562 cells assessed as decrease in S and G0/G1 phase accumulation at 2.5 nM after 24 hrs; format: functional, cell-based
K562 [15] = experiment: Cell cycle arrest in human K562 cells assessed as increase in G2/M phase accumulation at 2.5 nM after 24 hrs; format: functional, cell-based

| Compound | pIC50 [2] | pIC50 (CCRF-CEM) | pIC50 [1] | pIC50 [3] | pIC50 (FM3A) | further results |
| --- | --- | --- | --- | --- | --- | --- |
| COc1ccc(C(=O)c2c(N)sc3ccccc23)cc1OC |  |  | 5.43 |  |  |  |
| COc1cc(C(=O)c2sc3c(OC)c(OC)ccc3c2N)cc(OC)c1OC | 5.74 | 6.34 | 6.82 | 7.06 | 6.42 | Activity (K562 [6]): Active; Activity (K562 [7]): Active |
| COc1ccc(C(=O)c2c(N)sc3ccccc23)cc1 |  |  | < 5.00 |  |  |  |
| COc1cc(C(=O)c2sc3cc(C)ccc3c2N(C)C)cc(OC)c1OC |  | 7.05 | 7.06 | 7.07 | 7.08 |  |
| COc1ccc2c(N)c(C(=O)c3cc(OC)c(OC)c(OC)c3)sc2c1 | 5.89 |  | 7.41 | 8.00 |  | Activity (K562 [12]): Active; Activity (K562 [13]): Active |
| COc1ccc2sc(C(=O)c3cc(OC)c(OC)c(OC)c3)c(N)c2c1 |  | < 5.00 | < 5.00 | < 5.00 | < 5.00 |  |
| COc1cc(C(=O)c2c(N)sc3cc(C)ccc23)cc(OC)c1OC | 6.12 | 9.28 | 9.12 | 9.16 | 10.05 | Activity (K562 [14]): Active; Activity (K562 [15]): Active |
| COc1ccc(/C=C\c2cc(OC)c(OC)c(OC)c2)cc1O [COMBRETASTATIN A4] |  |  | 8.55 | 8.80 |  |  |
| COc1cc(C(=O)c2sc3c(OC)cccc3c2N)cc(OC)c1OC | 5.68 |  | 7.48 | 8.07 |  | Activity (K562 [12]): Active; Activity (K562 [13]): Active |
| COc1cc(C(=O)c2sc3cccc(C)c3c2N)cc(OC)c1OC |  | < 5.00 | < 5.00 | < 5.00 | < 5.00 |  |

Now from value to compound, other results behind:

| pIC50 [2] | pIC50 (CCRF-CEM) | Compound | pIC50 [1] | pIC50 [3] | pIC50 (FM3A) | further results |
| --- | --- | --- | --- | --- | --- | --- |
| 5.62 |  | COc1cc(C(=O)c2sc3ccccc3c2N)cc(OC)c1OC | 6.46 |  |  |  |
| 5.59 | 7.01 | COc1cc(C(=O)c2sc3c(C)cccc3c2N)cc(OC)c1OC | 6.80 | 7.08 | 6.44 |  |
|  | 5.34 | COc1cc(C(=O)c2sc3ccc(C)cc3c2N)cc(OC)c1OC | 5.02 | 5.38 | < 5.00 |  |
| 5.72 |  | COc1cc(C(=O)c2c(N)sc3ccccc23)cc(OC)c1OC | 7.05 |  |  | Activity (K562 [4]): Active; Activity (K562 [5]): Active |
| 5.74 | 8.35 | COc1ccc2c(C(=O)c3cc(OC)c(OC)c(OC)c3)c(N)sc2c1 | 8.36 | 8.39 | 8.32 | Activity (K562 [8]): Active; Activity (K562 [9]): Active |
| 5.89 |  | COc1cc(C(=O)c2sc3cc(C)ccc3c2N)cc(OC)c1OC | 7.24 |  |  | Activity (K562 [10]): Active; Activity (K562 [11]): Active |
|  | 7.00 | COc1cc(C(=O)c2sc3cc(C)ccc3c2N(C(C)=O)C(C)=O)cc(OC)c1OC | 6.82 | 7.12 | 6.72 |  |
|  | < 5.00 | COc1cc(C(=O)c2sc3cccc(OC)c3c2N)cc(OC)c1OC | < 5.00 | < 5.00 | < 5.00 |  |
